{"source": "patent US7253177B2", "about": "“Synthesis and antimalarial activity of pyrrolo[3,2-f]quinazoline-1,3-diamine derivatives” (United States of America as Represented by the Secretary of …, priority 2004, dated 2007)", "key": {"[1]": {"system": "Plasmodium yoelii (17x) sporozoites", "experiment": "Sporozoite induced test in mice", "format": "in vivo", "conditions": "P. yoelii; for Number of Mice Cured: oral", "method": "B. Antimalarial Activities: (a). In Vitro Antimalarial Studies. The in vitro assays were conducted by using a modification of the semiautomated microdilution technique of Desjardins et al and Chulay et al.. Four P. falciparum malaria parasite clones, from CDC Indochina III (W-2), CDC Sierra Leone I (D-6), Southeast Asia Isolates (TM91C235) and RCS (Isolates from Brazil) were utilized in susceptibility testing. They were derived by direct visualization and micromanipulation from patient isolates. The W-2 clone is susceptible to mefloquine but resistant to chloroquine, sulfadoxine, pyrimethamine, and quinine, whereas the D-6 clone is naturally resistant to mefloquine but susceptible to chloroquine, sulfadoxine, pyrimethamine and quinine. Test compounds were initially dissolved in DMSO and diluted 400 fold in RPMI 1640 culture medium supplemented with 25 mM Hepes, 32 mM NaHCO3 and 10% Albumax I (Gibco BRL, Grand Island, N.Y.). These solutions were subsequently serially diluted two-fold with a Biomek 1000 (Beckman, Fullerton, Calif.) over 11 different concentrations. The parasites were exposed to serial dilutions of each compound for 48 hrs and incubated at 37° C. with 5% O2, 5% CO2 and 90% N2 prior to the addition of [^3H]hypoxanthine. After a further incubation of 18 hrs, parasite DNA was harvested from each microtiter well using Packard Filtermate 196 Harvester (Meriden, Conn.) onto glass filters. Uptake of [^3H]hypoxanthine was measured with a Packard Topcount Scintillation. Concentration-response data were analyzed by a non-linear regression logistic dose response model and the IC50 values (50% inhibitory concentrations) for each compound were calculated. (Table 3). (b). In Vivo Antimalarial Studies against P. berghei in mice: The in vivo efficacy of the artelinic acid analogs were determined in a modified Thompson test. This test measures the survivability of mice and parasitemia clearance following administration of drug on days 3-5 post infection. In brief, 5×10^6 P. berghei-infected erythrocytes (KBG-173 strain) were inoculated intraperitoneally to female mice that weighed 24-30 g. By day three post-infection, parasitemia ranged from 1.0-3.7%. Each drug, dissolved in 5% sodium bicarbonate, was administered PO twice daily from day 3-5 post-infection. Total doses for each drug ranged from 1.5-384 mg/kg with 8 mice included in each dosage group. The percent suppression of parasitemia in the treated mice compared to the untreated controls was determined for each test compound; the SD-50 (fifty percent suppression dose) and SD-90 were determined from a non-linear regression logistic dose response fit at day 6 parasitemia data. Survival of mice to day 60 post-infection was considered a cure (C). Compounds were considered active (A) when the survival time of the treated mice was greater than twice the control mice, i.e., 12-14 day (Table 4-5). (c). Sporozoite Induced Test Each compound is ground with a mortar & pestle and suspended in 0.5% hydroxyethylcellulose—0.1% Tween 80 for compounds to be administered PO and those given SC are suspended in peanut oil. Each compound is prepared at 3 different dose levels as requested by WRAIR. Compounds are administered either PO or SC to mice once 4 hr before inoculation of sporozoites. Four-week-old male CD-1 mice, purchased from Charles River and weighing 16-17 g, are placed 5 per cage and allowed to acclimate for 4 days before being treated and then inoculated with sporozoites. They are fed food and water ad-lib and maintained at 76° F. with 12 hr light and 12 hr darkness. The cages and water bottles are changed biweekly. The mice are weighed on Days 0, 3 and 6 then biweekly when blood films are taken. Plasmodium yoelii (17×) is used to infect mice that will be used to infect the mosquitoes. […] Whole body weights are taken on Day 0 and Day 6 then twice a week for 31 days. A blood film is taken on Day 5 and then twice a week for 31 days. Mice loosing >20% of their body weight will be sacrificed. […]"}, "[2]": {"system": "P. berghei ANKA", "experiment": "In vivo antimalarial study against P. berghei in rats", "parameters": "species or system Plasmodium berghei"}, "[3]": {"experiment": "Host toxicity in animal models (general statements)", "format": "in vivo", "conditions": "any dose, all species of animal models studied"}}}
{"smiles": "CC(=O)N(C(C)=O)c1nc(N(C(C)=O)C(C)=O)c2c(ccc3c2ccn3Cc2ccccc2C(F)(F)F)n1", "note": "[Compound 3e, 1,3-Bis(diacetylamino)-7-(2-trifluoromethyl)benzyl-7H-pyrrolo[3,2-f]quinazoline]", "values": [{"measurement": "mice cured", "setting": "[1]; dose groups from 0.625 to 40 mg/kg", "value": 100, "unit": "%"}, {"measurement": "parasitemia formation in sporozoite challenged mouse", "setting": "[1]; doses from 0.65 to 40 mg/kg given orally for 3 consecutive days", "value": "completely prevented parasitemia formation"}, {"measurement": "Number of Mice Cured", "setting": "[1]; 0.15625 mg/kg", "value": "4/5"}, {"measurement": "Number of Mice Cured", "setting": "[1]; 0.3125 mg/kg", "value": "4/5"}, {"measurement": "Number of Mice Cured", "setting": "[1]; 0.625 mg/kg", "value": "5/5"}, {"measurement": "Number of Mice Cured", "setting": "[1]; 2.5 mg/kg", "value": "5/5"}, {"measurement": "Number of Mice Cured", "setting": "[1]; 10 mg/kg", "value": "5/5"}, {"measurement": "Number of Mice Cured", "setting": "[1]; 40 mg/kg", "value": "5/5"}, {"measurement": "cure against P. berghei in rats", "setting": "[2]; 5 mg/kg intragastric daily x3 (days 6, 7, 8 post-inoculation)", "value": 100, "unit": "%"}, {"measurement": "cure against P. berghei in rats", "setting": "[2]; 10 mg/kg intragastric daily x3", "value": 100, "unit": "%"}, {"measurement": "cure against P. berghei in rats", "setting": "[2]; 20 mg/kg intragastric daily x3", "value": 100, "unit": "%"}, {"measurement": "host toxicity in efficacy studies", "setting": "[3]", "value": "No host toxicity"}]}
